Data as given in patent publication US8192962B2, “Processes for detecting toxic substances” (Daikin Industries, Ltd., priority 2001, dated 2012).

Tested on: Unknown protein yeast genes
Experiment: DNA chip mRNA expression in yeast, unknown protein yeast genes (Table 1)
Format: cell-based, Saccharomyces cerevisiae S288C
Method in brief: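 Ratios compare mRNA levels in stressed and control S. cerevisiae. Each toxicant was applied for two hours to log-phase cultures at 25° C. at a sub-lethal, growth-inhibiting level; fluorescent cDNA (Cy3- or Cy5-dUTP) was hybridized to a genome-wide yeast chip for over 12 h at 65° C.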

For CN(C)C(=S)SSC(=S)N(C)C [(10), Tetramethylthiuram disulfide], the “The level of expressed mRNA in the presence of chemical substance/The level of expressed mRNA in the absence of chemical substance” value (yeast gene YAL053W, incubated two hours with chemical substance) was 0.9, the “The level of expressed mRNA in the presence of chemical substance/The level of expressed mRNA in the absence of chemical substance” value (yeast gene YBL048W) was 4.4 and the “The level of expressed mRNA in the presence of chemical substance/The level of expressed mRNA in the absence of chemical substance” value (yeast gene YBL107C) was 3.1. The “The level of expressed mRNA in the presence of chemical substance/The level of expressed mRNA in the absence of chemical substance” value (yeast gene YBR100W) was 3.0, the “The level of expressed mRNA in the presence of chemical substance/The level of expressed mRNA in the absence of chemical substance” value (yeast gene YDL072C, incubated two hours with chemical substance) was 1.5 and the “The level of expressed mRNA in the presence of chemical substance/The level of expressed mRNA in the absence of chemical substance” value (yeast gene YDL204W, incubated two hours with chemical substance) was 2.0. For the same compound, the “The level of expressed mRNA in the presence of chemical substance/The level of expressed mRNA in the absence of chemical substance” value (yeast gene YDL222C, incubated two hours with chemical substance) was 1.0, the “The level of expressed mRNA in the presence of chemical substance/The level of expressed mRNA in the absence of chemical substance” value (yeast gene YDR330W, incubated two hours with chemical substance) was 2.6 and the “The level of expressed mRNA in the presence of chemical substance/The level of expressed mRNA in the absence of chemical substance” value (yeast gene YDR391C, incubated two hours with chemical substance) was 2.7. For the same compound, the “The level of expressed mRNA in the presence of chemical substance/The level of expressed mRNA in the absence of chemical substance” value (yeast gene YDR411C, incubated two hours with chemical substance) was 1.0, the “The level of expressed mRNA in the presence of chemical substance/The level of expressed mRNA in the absence of chemical substance” value (yeast gene YDR511W, incubated two hours with chemical substance) was 2.2 and the “The level of expressed mRNA in the presence of chemical substance/The level of expressed mRNA in the absence of chemical substance” value (yeast gene YDR545W, incubated two hours with chemical substance) was 0.7. The “The level of expressed mRNA in the presence of chemical substance/The level of expressed mRNA in the absence of chemical substance” value (yeast gene YEL001C, incubated two hours with chemical substance) was 1.2, the “The level of expressed mRNA in the presence of chemical substance/The level of expressed mRNA in the absence of chemical substance” value (yeast gene YER004W, incubated two hours with chemical substance) was 2.9 and the “The level of expressed mRNA in the presence of chemical substance/The level of expressed mRNA in the absence of chemical substance” value (yeast gene YER035W, incubated two hours with chemical substance) was 1.4. The “The level of expressed mRNA in the presence of chemical substance/The level of expressed mRNA in the absence of chemical substance” value (yeast gene YER079W, incubated two hours with chemical substance) was 3.4, the “The level of expressed mRNA in the presence of chemical substance/The level of expressed mRNA in the absence of chemical substance” value (yeast gene YER106W, incubated two hours with chemical substance) was 1.8 and the “The level of expressed mRNA in the presence of chemical substance/The level of expressed mRNA in the absence of chemical substance” value (yeast gene YER158C, incubated two hours with chemical substance) was 1.6. The “The level of expressed mRNA in the presence of chemical substance/The level of expressed mRNA in the absence of chemical substance” value (yeast gene YER163C, incubated two hours with chemical substance) was 3.4, the “The level of expressed mRNA in the presence of chemical substance/The level of expressed mRNA in the absence of chemical substance” value (yeast gene YER175C, incubated two hours with chemical substance) was 11.5 and the “The level of expressed mRNA in the presence of chemical substance/The level of expressed mRNA in the absence of chemical substance” value (yeast gene YFL006W, incubated two hours with chemical substance) was 1.7. For the same compound, the “The level of expressed mRNA in the presence of chemical substance/The level of expressed mRNA in the absence of chemical substance” value (yeast gene YFL010C, incubated two hours with chemical substance) was 1.4, the “The level of expressed mRNA in the presence of chemical substance/The level of expressed mRNA in the absence of chemical substance” value (yeast gene YFL024C) was 0.5 and the “The level of expressed mRNA in the presence of chemical substance/The level of expressed mRNA in the absence of chemical substance” value (yeast gene YFL032W, incubated two hours with chemical substance) was 0.6. For the same compound, the “The level of expressed mRNA in the presence of chemical substance/The level of expressed mRNA in the absence of chemical substance” value (yeast gene YFR020W) was 3.5, the “The level of expressed mRNA in the presence of chemical substance/The level of expressed mRNA in the absence of chemical substance” value (yeast gene YGL037C, incubated two hours with chemical substance) was 1.6 and the “The level of expressed mRNA in the presence of chemical substance/The level of expressed mRNA in the absence of chemical substance” value (yeast gene YGL047W, incubated two hours with chemical substance) was 5.7. The “The level of expressed mRNA in the presence of chemical substance/The level of expressed mRNA in the absence of chemical substance” value (yeast gene YGL053W, incubated two hours with chemical substance) was 2.4, the “The level of expressed mRNA in the presence of chemical substance/The level of expressed mRNA in the absence of chemical substance” value (yeast gene YGL121C) was 15.0 and the “The level of expressed mRNA in the presence of chemical substance/The level of expressed mRNA in the absence of chemical substance” value (yeast gene YGL199C, incubated two hours with chemical substance) was 0.1. The “The level of expressed mRNA in the presence of chemical substance/The level of expressed mRNA in the absence of chemical substance” value (yeast gene YGR101W, incubated two hours with chemical substance) was 1.4, the “The level of expressed mRNA in the presence of chemical substance/The level of expressed mRNA in the absence of chemical substance” value (yeast gene YGR110W) was 4.8 and the “The level of expressed mRNA in the presence of chemical substance/The level of expressed mRNA in the absence of chemical substance” value (yeast gene YGR130C, incubated two hours with chemical substance) was 1.5. For the same compound, the “The level of expressed mRNA in the presence of chemical substance/The level of expressed mRNA in the absence of chemical substance” value (yeast gene YGR154C, incubated two hours with chemical substance) was 9.1, the “The level of expressed mRNA in the presence of chemical substance/The level of expressed mRNA in the absence of chemical substance” value (yeast gene YGR221C, incubated two hours with chemical substance) was 0.7 and the “The level of expressed mRNA in the presence of chemical substance/The level of expressed mRNA in the absence of chemical substance” value (yeast gene YGR243W) was 3.0. The “The level of expressed mRNA in the presence of chemical substance/The level of expressed mRNA in the absence of chemical substance” value (yeast gene YHR029C) was 8.6, the “The level of expressed mRNA in the presence of chemical substance/The level of expressed mRNA in the absence of chemical substance” value (yeast gene YHR105W) was 3.4 and the “The level of expressed mRNA in the presence of chemical substance/The level of expressed mRNA in the absence of chemical substance” value (yeast gene YHR138C, incubated two hours with chemical substance) was 4.6. The “The level of expressed mRNA in the presence of chemical substance/The level of expressed mRNA in the absence of chemical substance” value (yeast gene YHR199C, incubated two hours with chemical substance) was 6.0, the “The level of expressed mRNA in the presence of chemical substance/The level of expressed mRNA in the absence of chemical substance” value (yeast gene YHR209W) was 6.4 and the “The level of expressed mRNA in the presence of chemical substance/The level of expressed mRNA in the absence of chemical substance” value (yeast gene YIL023C, incubated two hours with chemical substance) was 1.6. For the same compound, the “The level of expressed mRNA in the presence of chemical substance/The level of expressed mRNA in the absence of chemical substance” value (yeast gene YIL024C, incubated two hours with chemical substance) was 1.8, the “The level of expressed mRNA in the presence of chemical substance/The level of expressed mRNA in the absence of chemical substance” value (yeast gene YIL041W, incubated two hours with chemical substance) was 1.4 and the “The level of expressed mRNA in the presence of chemical substance/The level of expressed mRNA in the absence of chemical substance” value (yeast gene YIL087C, incubated two hours with chemical substance) was 1.8. For the same compound, the “The level of expressed mRNA in the presence of chemical substance/The level of expressed mRNA in the absence of chemical substance” value (yeast gene YJL057C, incubated two hours with chemical substance) was 6.1, the “The level of expressed mRNA in the presence of chemical substance/The level of expressed mRNA in the absence of chemical substance” value (yeast gene YJL066C, incubated two hours with chemical substance) was 2.1 and the “The level of expressed mRNA in the presence of chemical substance/The level of expressed mRNA in the absence of chemical substance” value (yeast gene YJL082W, incubated two hours with chemical substance) was 2.9. The “The level of expressed mRNA in the presence of chemical substance/The level of expressed mRNA in the absence of chemical substance” value (yeast gene YJL151C, incubated two hours with chemical substance) was 1.6, the “The level of expressed mRNA in the presence of chemical substance/The level of expressed mRNA in the absence of chemical substance” value (yeast gene YJL152W, incubated two hours with chemical substance) was 1.0 and the “The level of expressed mRNA in the presence of chemical substance/The level of expressed mRNA in the absence of chemical substance” value (yeast gene YJL161W, incubated two hours with chemical substance) was 2.1. The “The level of expressed mRNA in the presence of chemical substance/The level of expressed mRNA in the absence of chemical substance” value (yeast gene YJL171C, incubated two hours with chemical substance) was 1.7, the “The level of expressed mRNA in the presence of chemical substance/The level of expressed mRNA in the absence of chemical substance” value (yeast gene YJR008W, incubated two hours with chemical substance) was 1.9 and the “The level of expressed mRNA in the presence of chemical substance/The level of expressed mRNA in the absence of chemical substance” value (yeast gene YJR054W, incubated two hours with chemical substance) was 0.6. For the same compound, the “The level of expressed mRNA in the presence of chemical substance/The level of expressed mRNA in the absence of chemical substance” value (yeast gene YKL071W) was 109.2.
